Assay results reported in patent US5714483A, “Antitussive” (TORAY Industries, Inc., priority 1992, dated 1998).

What was measured:
[1] = tested on: capsaicin-induced cough; test: Capsaicin-induced cough in rats (30 μM capsaicin), plethysmography, Examples 1 and 2; assay type: in vivo, SD male rats
Protocol: (§1) SD male rats (body weight: 250-350 g) were used under non-anesthesic condition.
(§2) Respiration and cough were measured by plestimography. The body plestimograph used has a plastic cylinder having a diameter of 7.5 cm and a length of 15 cm, and consists of a cylindrical part in which the body of the rat is inserted and a cap part which covers the head. In the upper portion of the cylinder, a vent was formed so as to connect a respiration flow meter. To tightly close the cylinder, a collar made of rubber or celluloid was put on the neck of the rat. In the cap part, an inlet for introducing capsaicin and a ventilating hole were formed. The respiration of the rats was measured by measuring the movement of the thorax due to the respiration in terms of the change in the inner volume of the cylinder by the respiration flow meter. […] This large change is distinguished from the normal respiration and measured by the respiration flow meter. The number of this large change was measured, which is defined as the number of cough.
(§3) Capsaicin (30 μM) was converted to mist by ultrasonic nebulizer and the mist was sent by an artificial respirator into the cap covering the head of the rat through a silicone tube, thereby inducing cough. Capsaicin was transferred by the artificial respirator for inhalation at a dose of 20 ml/time and at a rate of 30 times/min.
The rats were made to inhale capsaicin for 5 minutes at 15 minutes before the administration of the test compound. Induction of cough was confirmed during the inhalation of capsaicin. The rats were made to inhale capsaicin for 5 minutes at 15, 60 and 120 minutes after administration of the compound, and the number of induced cough was measured during this period. The antitussive effect was evaluated in terms of the suppression rate, that is, the ratio of the number of cough after administration of the test compound to the number of cough before administration of the compound. The measured suppression rates were compared using Mann Whiteny U-test. If there is a difference at significant level (P<0.05), the difference was evaluated as significant. Capsaicin was dissolved in 10% ethanol and 10% Tween 80 and diluted with saline. The test compound was dissolved in saline. In any case, the test compound was intraperitoneally administered.

[2] = tested on: capsaicin-induced cough; test: Capsaicin-induced cough in rats (60 μM capsaicin), ED50, Example 3; assay type: in vivo, SD male rats; settings: Rattus norvegicus, ip, 0.5 h; i.p.; capsaicin 60 μM, 30 minutes after administration; read-out: ED50 (dose at which the number of cough is suppressed to half)
Protocol: as §1, §2
as §3, with “(60” for “(30”, “10” for “20”, “70” for “30”
The rats were made to inhale capsaicin for 5 minutes at 270 minutes before the administration of the test compound. Induction of cough was confirmed during the inhalation of capsaicin. The rats were made to inhale capsaicin for 5 minutes at 30 minutes after administration of the test compound, and the number of induced cough during this period was measured. The antitussive effect was evaluated in terms of the suppression rate, that is, the ratio of the number of cough after administration of the test compound to the number of cough before administration of the test compound. Capsaicin was dissolved in saline. The test compounds were dissolved in aqueous 10% DMSO solution. In any case, the test compounds were intraperitoneally administered. The effectiveness of each of the test compounds is shown in terms of ED50 value which means the dose at which the number of cough is suppressed to half.

Oc1ccc2c3c1O[C@H]1c4[nH]c5ccccc5c4C[C@@]4(O)[C@@H](C2)N(CC2CC2)CC[C@]314 [Compound 1, 17-cyclopropylmethyl-6,7-didehydro-4,5α-epoxy-3,14β-dihydroxy-6,7,2',3'-indolomorphinan]
dose-dependence of antitussive effect ([1]; 0.03 mg/kg to 1 mg/kg, i.p., 15 minutes after administration): dose-dependent antitussive effect
antitussive effect ([1]; 1 mg/kg, i.p.): a significant antitussive effect was observed
peak of the antitussive effect (time after administration) ([1]; 1 mg/kg, i.p.): 15 min
antitussive effect at 120 minutes compared with saline group ([1]; 1 mg/kg, i.p., 120 minutes after administration, vs saline group): a significant antitussive effect was observed even 120 minutes after the administration
antitussive effect compared with morphine (0.3 mg/kg) ([1]; Compound 1 1 mg/kg vs morphine 0.3 mg/kg, i.p., 15 minutes after administration): substantially identical to that by morphine (0.3 mg/kg)

Oc1ccc2c3c1O[C@H]1c4[nH]c5c6c(ccc5c4C[C@@]4(O)[C@@H](C2)N(CC2CC2)CC[C@]314)CCCC6 [Compound 2, 17-cyclopropylmethyl-6,7-didehydro-4,5α-epoxy-3,14β-dihydroxy-6',7'-cyclohexeno-6,7,2',3'-indolomorphinan]
ED50 [2]: 0.0395 mg/kg

Oc1ccc2c3c1O[C@H]1c4nc5ccccc5cc4C[C@@]4(O)[C@@H](C2)N(CC2CC2)CC[C@]314 [Compound 4, 17-cyclopropylmethyl-6,7-didehydro-4,5α-epoxy-3,14β-dihydroxy-6,7,2',3'-quinolinomorphinan]
ED50 [2]: 0.984 mg/kg

Oc1ccc2c3c1O[C@H]1c4[nH]c5c(ccc6cnccc65)c4C[C@@]4(O)[C@@H](C2)N(CC2CC2)CC[C@]314 [Compound 5, 17-cyclopropylmethyl-6,7-didehydro-4,5α-epoxy-3,14β-dihydroxy-[6',7'-b]-pyrido-6,7,2',3'-indolomorphinan]
ED50 [2]: 0.0797 mg/kg

COc1ccc2c3c1O[C@H]1c4[nH]c5c(ccc6cnccc65)c4C[C@@]4(O)[C@@H](C2)N(CC2CC2)CC[C@]314 [Compound 6, 17-cyclopropylmethyl-6,7-didehydro-4,5α-epoxy-14β-hydroxy-3-methoxy-[6',7'-b]-pyrido-6,7,2',3'-indolomorphinan]
ED50 [2]: 0.0413 mg/kg

COc1ccc2c3c1O[C@H]1c4[nH]c5ccccc5c4C[C@@]4(O)[C@@H](C2)N(CC2CC2)CC[C@]314 [Compound 7, 17-cyclopropylmethyl-6,7-didehydro-4,5α-epoxy-14β-hydroxy-3-methoxy-6,7,2',3'-indolomorphinan]
ED50 [2]: 0.0639 mg/kg

COc1cc(CNC(=O)CCCC/C=C/C(C)C)ccc1O [capsaicin, reference compound]
number of cough induced by inhalation of capsaicin ([1]; capsaicin 30 μM mist, 5 min inhalation): 22.5±1.2 times/5 minutes
